The source of these data is patent US20180265867A1, “NUCLEIC ACID MOLECULES WITH ENHANCED ACTIVITY” (priority 2015, published 2018).

d = 2'-deoxy (DNA); r = 2'-OH (RNA)

Data set [1] concerns 3p or 5p miR34a target-site in 3′ UTR of Renilla luciferase. As to the kind of experiment: Dual glo assay of miR34a strand selection in HCT116 cells. The data set is classed as cell-based, human. The following applies: 50 nM miRNA, 300 ng plasmid, RNAiMAX, 24 h. The method, then:
For all experiments RNAiMAX was used for transfection of both plasmid and miRNA in accordance with manufacturer's instructions, but with altered RNA and plasmid concentrations. For Dual glo assay, cells were co-transfected with 50 nM miRNA and 300 ng plasmid. For qPCR cells were transfected with 100 nM miRNA.
HCT116 cells were seeded 10000 cells per well in a 96 well plate and transfected with both plasmid and miRNA 24 hours later. All transfections were performed in triplicates. The plasmids used were the dual luciferase reporter plasmid with either a 3p or 5p miR34a target-site cloned into the 3′ UTR (denoted plasmid 3 or plasmid 5). After 24 hours 75 μl of Dual glo firefly substrate (Promega) was added to each well. 100 μl of cell-lysate was moved to a microtiter plate after 10 minutes of incubation and luminescence was measured and it was followed by addition of 75 μl of Stop glo Renilla substrate (Promega) to the same plate and luminescence was measured again after 10 minutes of incubation. The Renilla luminescence values were normalized against the firefly luminescence values and expressed as a percentage of the negative control, a scrambled non-functional miRNA.
Dual glo assay and RT-qPCR were performed to identify the degree of strand selection of the modified miRNA. First, we designed two different plasmids (psiCheck2 vector) such that miRNA target-sequence (3p or 5p) is cloned into the 3′-UTR of the Renilla luciferase gene (see FIG. 16) with firefly luciferase as the internal control to normalize the Renilla luciferase expression. We estimated the levels of the individual strand recruitment (3p or 5p) using the dual-glo luminesce assay. The target-sequence corresponds exactly to either the 3p or 5p strands, and a change in luminescence can be directly attributed to the gene silencing efficiency.
Four independent trials of dual glo assay were performed, with each of the samples in triplicates. Luminescence is shown as a percentage of the scrambled miRNA which serves as the negative control. Two different modifications were used on each of the strands of the miR34a (see Table 5). The miR34a was modified to make the 5p strand the guide strand by incorporating three deoxy thymidine residues at the 3′ end of the 3p strand (mod5a).

The test system of data set [2] is MG63 cells. Briefly: Fluorescence / confocal microscopy of cellular distribution in MG63 cells. The format is cell-based, human. The following applies: fluorescently labelled, transfection reagent free. The method, then:
Cellular uptake experiments were performed by plating cells (1×10^4) in an 8 well chamber slide. At 70% confluency, the cells were transfected with 50 nM Cy3-cpRNA and incubated at 37° C. for 24 h. Control wells were left untreated. Each transfection was performed in triplicate. […] The slides were mounted using Vectashield mounting medium containing 4′, 6-diamidino-2-phenylindole (DAPI) (Vector Labs, Burlingame, Calif.) to stain the nuclei of cells.
MG63—human osteosarcoma cells were cultured in α-MEM (Sigma-Aldrich, Haverhill, UK) medium containing 10% FBS, 1% L-Glutamine, and 1% antibiotics (PeSt) at 37° C. with 5% CO2. One day prior to the siRNA treatment, 35,000 cells were plated per each well of a 24-well plate. On the experiment day, cells were replaced with 10% heat inactivated-FBS containing α-MEM medium with 1% L-Glutamine, and 1% antibiotics (PeSt). Fluorescently (Cy3) labelled CP-siRNA and nicked CP-siRNA having GAPDH targeting sequence (final concentration: 50 nM) was given to the each well. After 24 hours the cells were washed with PBS and fixed with 4% formaldehyde for 20 mins at room temperature and then washed twice with PBS. DAPI (1 ug/ml in PBS) was added to cells for 5 mins and then washed with PBS. The cells were then visualized in Nikon TiU at 20×+1.5× and analysed with the Nikon Imaging software.

Data set [3] concerns Ctnnb1 (β-Catenin). Briefly: Ctnnb1 expression in MC3T3-E1 cells by quantitative RT-PCR. The data set is classed as cell-based, mouse. The method, then:
MC3T3-E1 cells were cultured in α-MEM (Sigma-Aldrich, Haverhill, UK) medium containing 10% FBS, 1% L-Glutamine, and 1% antibiotics (PeSt) at 37° C. with 5% CO2. One day prior to the miRNA treatment, 35,000 cells were plated per each well of a 24-well plate. On the experiment day, cells were replaced with 2% heat inactivated-FBS containing α-MEM medium with 1% L-Glutamine, and 1% antibiotics (PeSt). miR-34a-CP (final concentration: 50 nM) was given to the each well. Mirvana scrambled miRNA mimic was used as a negative control.
After 24 hours of transfection, and incubation, RNA extraction was performed by using miRCURY RNA Isolation Kit—Cell and Plant (#300100) and protocol from Exiqon, Vedbæk, Denmark. RNA samples were treated with DNase for 30 minutes at 37 degrees, thereafter inactivated with a DNase inactivation solution (TUTRBO DNase AM2238 thermofisher). Thereafter, RNA concentrations were measured using NanoDrop ND-1000 from NanoDrop Technologies, Wilmington, Del.
The cDNA was made from the total RNA using High Capacity cDNA reverse transcription kit (Applied Biosystems, USA). Reactions were performed on a 96-well Bio-Rad Thermal Cycler PCR System at 37° C. for 60 minutes, and at 95° C. for 5 min respectively. Real-time PCR reactions were performed as follows: 10 μl of 2×TaqMan® Universal PCR Master Mix, no AmpErase® UNG (Applied Biosystems, USA), 9 μl 1:5 diluted cDNA, and 1 μl of TaqMan gene specific assay mix. Final volume of the reaction mix was 20 uL. Internal control gene beta-actin (ACTB) (Applied Biosystems, USA) was selected as control for normalization of TaqMan data. The qRT-PCR reaction comprised a non-template control of cDNA in order to rule out any non-specific reading. Taqman probes for Ctnnb1, Sox9, Actb, were obtained from Applied Biosystems. The qRT-PCR amplification was carried out using the Bio-Rad qRT-PCR Thermocycler.
In order to achieve the transfection reagent free delivery of therapeutically potential microRNAs, we tested miR-34a and compared with miR-34a-CP. Since microRNAs unlike siRNAs have multiple targets in the cell, and there is a necessity to reduce the off-target and undesirable effects if any, we have also designed siRNA model siR-34a-CP as stated above. We have used mouse preosteoblast cell line MC3T3-E1 obtained from calvarial bone for the in-vitro functional validation of cell-penetrating molecules. On the day before transfection experiment, 35000 MC3T3-E1 cells were cultured per each well of the 24-well culture plate in alpha-Minimum Essential Medium with 10% heat inactivated FBS, 1% L-Glutamine, 1% antibiotics (Pe/St). […] 5% CO2. Thereafter, RNA extraction, cDNA preparation, and quantitative real-time PCR was performed by using TaqMan procedure.

Turning to “mod3a: miR34a with three deoxy thymidines added to 3′ end of 5p strand, SEQ ID NO: 20 and 35 (chain 1 CAAUCAGCAAGUAUACUGCCCU; chain 2 UGGCAGUGUCUUAGCUGGUUGUTTT; chain 1: RNA, backbone not given here; chain 2: sugars from the 5' end r22 d3, backbone not given here)”, the “strand selection (Dual glo luminescence)” value in data set [1] is listed as “slight increase in strand selection but this was not statistically significant”.
On to “mod5a: miR34a with three deoxy thymidines added to 3′ end of 3p strand, SEQ ID NO: 37 and 21 (chain 1 CAAUCAGCAAGUAUACUGCCCUTTT; chain 2 UGGCAGUGUCUUAGCUGGUUGU; chain 1: sugars from the 5' end r22 d3, backbone not given here; chain 2: RNA, backbone not given here)”, for which, in data set [1], the “strand selection (Dual glo luminescence)” value is on record as 3p strand being less chosen as the guide strand.
“nicked CP-siRNA: Nicked GAPDH CP-siRNA, sense SEQ ID NO: 28, nicked antisense sequences a and b SEQ ID NO: 29 and 30 (sense CCGAGCCACAUCGCUCAGATTTTT; antisense 1 UCUGAGCGAU; antisense 2 GUGGCUCGG; sense: sugars from the 5' end r19 d5, backbone not given here; antisense 1: RNA, backbone not given here; antisense 2: RNA, backbone not given here; further chemistry not fully specified)”: the cellular distribution entry in data set [2] is listed as “some nuclear localization”.
Regarding “mod3b: miR34a with five deoxy thymidines added to 3′ end of 5p strand, SEQ ID NO: 20 and 36 (chain 1 CAAUCAGCAAGUAUACUGCCCU; chain 2 UGGCAGUGUCUUAGCUGGUUGUTTTTT; chain 1: RNA, backbone not given here; chain 2: sugars from the 5' end r22 d5, backbone not given here)”, the “strand selection (Dual glo luminescence)” value in data set [1] is “slight increase in strand selection but this was not statistically significant”.
Turning to “mod5b: miR34a with five deoxy thymidines added to 3′ end of 3p strand, SEQ ID NO: 38 and 21 (chain 1 CAAUCAGCAAGUAUACUGCCCUTTTTT; chain 2 UGGCAGUGUCUUAGCUGGUUGU; chain 1: sugars from the 5' end r22 d5, backbone not given here; chain 2: RNA, backbone not given here)”, the “strand selection (Dual glo luminescence)” value in data set [1] was 3p strand being less chosen as the guide strand.
In the case of “CP-siRNA: GAPDH CP-siRNA, sense SEQ ID NO: 26 with dT5, antisense SEQ ID NO: 27; Cy3 labelled for imaging (sense CCGAGCCACAUCGCUCAGATTTTT; antisense UCUGAGCGAUGUGGCUCGGTT; sense: sugars from the 5' end r19 d5, backbone not given here; antisense: sugars from the 5' end r19 d2, backbone not given here; Cy3 label)”, the cellular distribution entry in data set [2] is “perinuclear distribution”.
“siR-34a-CP: Cell penetrating siRNA analog of miR-34a, sense SEQ ID NO: 24 with dA5, antisense SEQ ID NO: 25 (sense AAUCAGCUAAGUAUACUGCCAAAAAA; antisense UGGCAGUGUACUUAGCUGGUUGU; sense: sugars from the 5' end r21 d5, backbone not given here; antisense: RNA, backbone not given here)”: the Ctnnb1 expression entry in data set [3] (50 nM, 24 h, alone without transfection reagent (FIG. 11)) is “up regulation of Ctnnb1”; in data set [3] (without transfection reagent MaTra (FIG. 12)), “up regulation of Ctnnb1”.
